Patent US8105979B2, “Active ingredient combinations with insecticidal and acaricidal properties” (Bayer CropScience AG, priority 2006, dated 2012)

Tests used:
Myzus persicae = Myzus persicae test (cabbage leaf dip); assay type: in vivo; conditions: single active compound
[1] = test system: Phaedon cochleariae larvae; assay: Phaedon cochleariae larvae test (cabbage leaf dip); conditions: single active compound

CN(Cc1ccc(Cl)nc1)C1=CC(=O)OC1 [compound (Ia)]
Kill in % after 1d (Myzus persicae; 0.8 ppm): 70% | Kill in % after 6d ([1]; 20 ppm): 5% | Kill in % after 4d ([1]; 100 ppm): 68%

O=C1C=C(N(Cc2ccc(Cl)nc2)C2CC2)CO1 [compound (Ib)]
Kill in % after 1d (Myzus persicae; 0.8 ppm): 10% | Kill in % after 1d (Myzus persicae; 4 ppm): 75%

Cc1cc(C)c(C2=C(OC(=O)CC(C)(C)C)C3(CCCC3)OC2=O)c(C)c1 [spiromesifen, reference compound]
Kill in % after 1d (Myzus persicae; 100 ppm): 0% | Kill in % after 6d ([1]; 100 ppm): 10%

spirotetramate [reference compound]
Kill in % after 1d (Myzus persicae; 0.8 ppm): 5% | Kill in % after 4d ([1]; 20 ppm): 5%
